{"source": "patent US9975852B2", "about": "“Quinoline sulfonyl derivatives and uses thereof” (Health Sciences North Research Institute, priority 2013, dated 2018)", "key": {"[1]": {"target": "T1, Chymotrypsin-like proteasome activity in HeLa S3 cell lysates (Homo sapiens, UniProt P28074)", "T1 construct": "proteasomes were extracted in 0.5% NP40 buffer; endogenous in cells; host or cells: HeLa S3", "experiment": "Proteasome activity assay, chymotrypsin-like", "format": "biochemical", "details": "read-out: Inhibition (IC50) Chymotrypsin-like", "method": "(§1) Exponentially growing HeLa S3 cells were plated on 96-well plates. After overnight incubation, the cells were treated with different concentrations of drugs for 6 hours or left untreated (control). At the end of 6 hours, proteasomes were extracted in 0.5% NP40 buffer, and equal amounts of samples were incubated with 25 μM of fluorogenic substrates purchased from Boston Biochem (Cambridge Mass.). (LRR-specific for trypsin-like activity, LLE-specific for caspase-like activity and SUVY-specific for chymotrypsin like activity) in black-bottom 96-well plates at 37° C. Fluorescence was monitored every 5 min at the wavelength of 360 nm (excitation) and 480 nm (emission). Chymotrypsin activity was also determined by a kit-based method (similar to described above) purchased from Caymen Biochem (Ann Arbor, Mich.), using a fluorogenic substrate specific for chymotrypsin activity.\n(§2) Analysis of proteasome activity in HeLa S3 cell lysates treated with various compounds (FIG. 10). VR-23 inhibits proteasome activity. 20S proteasome activity was inhibited by 1 μM VR-23. MG132 and EGCG, known proteasome inhibitors, were used as positive controls. The PC positive control is cell lysates prepared from Jurkat cells with a high proteasome activity. “Asynchr” denote asynchronous HeLa S3 cells grown in the absence of VR-23."}, "[2]": {"system": "HeLa S3 cells", "experiment": "Confocal microscopy of spindle poles, centrosomes and cytoskeleton, HeLa S3 cells", "format": "cell-based", "excerpt": "All immunocytochemistry experiments were visualized by confocal microscopy using a Zeiss 510 Meta laser scanning microscope (Carl Zeiss) equipped with a 63× objective lens, unless otherwise specified herein. Three lasers were utilized for excitation with the following band pass filter settings used for detection: Argon 488 nm (band pass 505-530), HeNe 543 nm (long pass 560) and 633 nm (long pass 650). All images were captured and analyzed using LSM 510 software included with the microscope (LSM Image Examiner™, Carl Zeiss).\nThe synchronization at the G1/S border (more accurately at the beginning of S phase) was achieved by double thymidine block (DT). Briefly, exponentially growing cells are treated with 2.0 mM thymidine for 18 hours, followed by incubation for 11 hours in drug-free complete medium, by which time most cells are at mid-late G1 phase. The cells are then incubated for another 14 hours in 2.0 mM thymidine to arrest them at the G1/S border. To arrest cells at the G2/M phase, cells were maintained for 18 hours in complete medium containing nocodazole (50 ng/ml). Both these synchronization are reversible.\nVR-23 caused the formation of multiple spindle poles during late G1 phase in HeLa S3 cells (FIG. 9). HeLa S3 cells were synchronized at G2/M by nocodazole (50 ng/ml, 18 hours), followed by incubation for 6 hours in drug-free medium (at which time they were at G1) (see, e.g., FIG. 8). Cells were then incubated in the absence (control) or presence of 5 μM VR-23 for additional 6 hours (see flow cytometry profile in FIG. 8). […] Note the presence of uneven cell sizes (arrows) which may have been generated as a result of nondisjuctional chromosome segregation during mitosis.\nExponentially growing HeLa S3 cells were treated with 5 μM VR-23 for 6 hours, fixed, stained with an antibody specific for α-tubulin and then examined by confocal fluorescent microscopy for changes to their cytoskeletal structure. Sham denotes that the sample was treated exactly the same as VR-23 sample, except that they were not exposed to VR-23. […] HeLa S3 cells were treated with 2 mM thymidine for 18 hours, followed by incubation for 11 hours in drug-free complete medium, by which time most cells were at mid-late G1 phase. The cells were then incubated for another 14 hours in 2.0 mM thymidine in the absence (control) or presence of 10 μM VR-23. Under these conditions, cells are trapped in the beginning of S phase by a second thymidine block. No centrosome was amplified in the control, while over 87% of VR-23 treated cells analyzed contained multiple centrosomes.\nHeLa S3 cells synchronized at the G1/S border by DT treatment were released into cell cycle for 1-6 hours in the absence (control) (FIG. 13A) or presence (FIG. 13B) of VR-23, followed by confocal microscopy. Centrosome amplification was manifested by 3 hour post-DT, although supernumerary started to form by 2 hour post-DT (solid arrows). (Due to experimental variations, centrosome amplification is not visible by 2 hours in all instances). […] More than 70% of cells exposed to VR-23 for 12 hours during S-G2/M contained multiple centrosomes, compared to less than 4% in the control. At least 200 cells were counted for each sample, and each experiment was repeated at least three times.\nHeLa S3 cells synchronized at G1/S by DT were released into normal medium for 6 hours (cells reached ˜G2/M), at which time they were exposed to VR-23 for additional 6 hours. Solid arrows denote spindle assembly complexes. […] Triple MTOC/Three-way-pull phenotype comprises usually more than 50-60% of the total population. The “No attachment” phenotype is usually observed when DNA is not completely condensed."}, "[3]": {"experiment": "Organ weight and histology (liver, spleen, kidney, lung) of ATH490 mice", "method": "All values are presented as mean±S.E.M. Analyses were performed using GraphPad Prism software (GraphPad Software). Comparison between the groups was made by p value determination using one-way ANOVA. A p value of <0.05 was considered to be statistically significant. […] Each organ weight (%) is normalized with total body weight (BW).\nThe H&E stained slides were taken with a 20× objective using a Zeiss EPI-fluorescent microscope (bright field). […] At least 10 fields for each slide (one slide per mouse, and 3 mice per group) were examined.\nImages were taken with a 10× objective using a Zeiss EPI-fluorescent microscope. […] Drug administration was carried out as described in Table IX and in the Materials and Methods section herein with respect to Animal Studies.\nThe images of the H&E stained renal tissues were taken with a Zeiss EPI-fluorescent (bright field) microscope using a 10× objective."}, "[4]": {"system": "20S proteasome", "experiment": "20S proteasome activity in HeLa S3 cell lysates", "format": "biochemical", "details": "1 μM VR-23", "method": "as §1, §2"}, "[5]": {"details": "VR-23 for 6 hours from 6 hours post-DT"}, "[6]": {"details": "VR-23 30 mg/kg, paclitaxel 20 mg/kg"}}, "note": "“Also recorded” adds a separate entry of the source."}
{"smiles": "O=[N+]([O-])c1ccc(S(=O)(=O)N2CCN(c3ccnc4cc(Cl)ccc34)CC2)c([N+](=O)[O-])c1", "note": "[Compound 1, 7-Chloro-4-(4-(2,4-dinitrophenylsulfonyl)piperazin-1-yl)quinoline]", "values": [{"measurement": "IC50", "setting": "[1]", "value": 100, "unit": "nM"}, {"measurement": "Cells with multiple spindle phenotype", "setting": "[2]; 5 μM VR-23, 6 hours, late G1", "value": 44.4, "unit": "%"}, {"measurement": "Cytoskeletal formation", "setting": "[2]; 5 μM VR-23 for 6 hours, α-tubulin staining", "value": "caused abnormal cytoskeletal formation"}, {"measurement": "Cells containing multiple centrosomes", "setting": "[2]; 10 μM VR-23 during second thymidine block, 14 hours", "value": "over 87%"}, {"measurement": "Number of cells with multiple centrosomes", "setting": "[2]; 3 hours post DT", "value": "41 ± 11.8"}, {"measurement": "Number of cells with multiple centrosomes", "setting": "[2]; 6 hours post DT", "value": "55.2 ± 16.7"}, {"measurement": "Number of cells with multiple centrosomes", "setting": "[2]; 12 hours post DT", "value": "73.2 ± 1.0"}, {"measurement": "Mitotic cells among 352 cells counted", "setting": "[2]; [5]", "value": 34.1, "unit": "%"}, {"measurement": "Mitotic cells with abnormal chromosome segregation", "setting": "[2]; [5]", "value": 78.3, "unit": "%"}, {"measurement": "Triple MTOC/Three-way-pull phenotype, share of total population", "setting": "[2]; [5]", "value": "50-60%"}, {"measurement": "Cells containing multiple centrosomes", "setting": "[2]; exposed to VR-23 for 12 hours during S-G2/M", "value": "More than 70%"}, {"measurement": "Microscopic Changes (liver)", "setting": "[3]; ATH490 mice, VR-23, 30 mg/week, Paclitaxel, 20 mg/week", "value": "Largely (>95% of cases) normal"}, {"measurement": "Effects on vital organs by their weights", "setting": "[3]; VR-23 30 mg/kg, 29 days post-treatment", "value": "did not cause any notable ill effects on vital organs"}, {"measurement": "Mitotic index in the liver", "setting": "[3]; [6]", "value": "did not cause an increase in mitotic index"}, {"measurement": "Spleen histology (H&E)", "setting": "[3]; [6]", "value": "did not cause any notable toxicity to the spleen"}, {"measurement": "Kidney histology (H&E), nephrotoxicity", "setting": "[3]; VR-23 30 mg/kg, paclitaxel 20 mg/kg, four weeks", "value": "did not cause any notable toxicity to the kidney"}, {"measurement": "20S proteasome activity", "setting": "[4]", "value": "inhibited; also recorded: almost completely inhibits"}]}
